In publication PMC5019375, “Characterization of Potent SMAC Mimetics that Sensitize Cancer Cells to TNF Family-Induced Apoptosis” (PLoS ONE, 2016):
“And” between values parts separate entries of the source, which are not always exact repeats. Equal entries are not always repeated. No end group written: not given here.

Tests used:
cIAP1-BIR3 = cIAP1-BIR3 (Homo sapiens, UniProt Q13490); assay: FP competition assay, displacement of SMAC-rhodamine; conditions: for binding affinity for cIAP1 and cIAP2 compared with XIAP: estimated by relative Ki values, cIAP1 and cIAP2 vs XIAP
Chain of cIAP1-BIR3 (Q13490 257-356): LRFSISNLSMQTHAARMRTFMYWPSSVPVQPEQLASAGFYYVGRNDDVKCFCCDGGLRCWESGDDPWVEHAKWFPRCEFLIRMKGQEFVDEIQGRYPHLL
Description: (§3) Solutions for assessing SMAC-rhodamine binding to various BIR domains were empirically optimized. […] For cIAP1-BIR3, the assay buffer was 25 mM Hepes [pH 7.5] containing 40 mM β-glycerol phosphate, 1 mM TCEP, and 0.005% Tween 20, typically with 20 nM SMAC-rhodamine. For cIAP1-BIR2, cIAP2-BIR2 and cIAP2-BIR3, assays were performed in 25 mM Hepes [pH 7.5] containing 1 mM TCEP and 0.005% Tween 20, typically with 20 nM SMAC-rhodamine.
(§4) For cIAP1-BIR2, assays were conducted using 25 mM Hepes [pH 7.5] containing 1 mM TCEP, 0.005% Tween 20, ~1 μM cIAP1-BIR2, and 20 nM SMAC-rhodamine. For cIAP1-BIR3, assays were performed using the same buffered solution, except 40 mM β-glycerol phosphate was added and the cIAP1-BIR3 concentration was reduced to 50 nM. For cIAP2-BIR2, assays included a buffer containing 25 mM Hepes [pH 7.5] containing 1 mM TCEP, 0.005% Tween 20, 1 μM cIAP2-BIR2, and 20 nM SMAC-rhodamine. […] IC50 values were determined with a nonlinear fit using Prism software. Ki values were determined from the IC50 values using an online program developed by Nikolovska-Coleska et al. [26].

cIAP2-BIR3 = cIAP2-BIR3 (Homo sapiens, UniProt Q13489); assay: as above
Chain of cIAP2-BIR3 (Q13489 243-333): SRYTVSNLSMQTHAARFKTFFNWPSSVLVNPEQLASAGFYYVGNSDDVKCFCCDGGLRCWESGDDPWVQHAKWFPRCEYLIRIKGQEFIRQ
Description: as §3, §4

cIAP2-BIR2 = cIAP2-BIR2 (Homo sapiens, UniProt Q13489); assay: as above
Chain of cIAP2-BIR2 (Q13489 129-246): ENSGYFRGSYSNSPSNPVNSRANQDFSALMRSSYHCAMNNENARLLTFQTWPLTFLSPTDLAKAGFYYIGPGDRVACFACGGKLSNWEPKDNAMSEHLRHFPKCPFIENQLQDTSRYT
Description: as §3, §4

cIAP1-BIR2 = cIAP1-BIR2 (Homo sapiens, UniProt Q13490); assay: as above
Chain of cIAP1-BIR2 (Q13490 144-260): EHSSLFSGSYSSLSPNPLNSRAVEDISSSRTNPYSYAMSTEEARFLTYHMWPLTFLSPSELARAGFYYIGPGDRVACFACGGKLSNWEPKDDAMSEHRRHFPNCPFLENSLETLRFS
Description: as §3, §4

[1] = system: PC-3 prostate cancer cells; assay: Cytotoxicity assay, sensitization to LT-α (CellTiter-Glo); type: cell-based, human; set-up: key to LT-α EC50: IN: EC50 too weak to be determined
Description: (§1) Cellular cytotoxicity experiments were conducted in white 96-well flat bottom plates (Greiner Bio-One #655074). PC-3 prostate cancer cells were seeded into microtiter wells in 90 μL RPMI medium with 10% fetal calf serum and antibiotics at 5,000 cells per well, and then incubated overnight at 37°C with 5% CO2/95% air. The next day, compounds diluted into the same culture medium and added in 10 μL aliquots to achieve various final concentrations, maintaining a uniform total volume per well. Either TNF (at 10 nM final) or LT-α (at ~90 pM final) resuspended in 10 μL of RPMI with 10% fetal calf serum and antibiotics was added to wells or an equal volume of medium was applied for the control well. The plates were then further incubated for 24 h. Subsequently, cell viability was assessed by the addition of 25 μL per well of Cell-Titer-Glo reagent (Promega, Inc). Plates were read using a Luminoskan Ascent luminometer.
(§2) The cellular activity of cIAP1 and cIAP2 inhibitors was evaluated through experiments where cytotoxicity of a human prostate tumor cell line (PC-3) was assessed in the presence or absence of cytokines TNF and LT-α. The experimental approach we used was to provide TNF or LT-α at a fixed concentration, which by itself was non-cytotoxic, then titrate SMAC mimetics into the cell cultures. […] The compound series described in this work has been tested against a broad range of cell lines (data not shown and [23]) and single agent toxicity was only observed for SKOV3 ovarian tumor cells. This agrees with the findings of Varfolomeev, Vince and Lalaoui, respectively.

[2] = system: PC-3 prostate cancer cells; assay: Cytotoxicity assay, sensitization to TNF (CellTiter-Glo); type: cell-based, human; set-up: key to TNF EC50: IN: EC50 too weak to be determined
Description: as §1, §2

[3] = cIAP1 BIR3 Ki, 25 mM Hepes pH 7.5, 1 mM TCEP, 0.005% Tween 20, 20 nM SMAC-rhodamine, 40 mM β-glycerol phosphate, ~50 nM protein, Ki calculated from IC50

Compound | Ki (cIAP1-BIR3; [3]) | Ki (cIAP2-BIR3) [nM] | Ki (cIAP2-BIR2) [nM] | Ki (cIAP1-BIR2) [nM] | further results
CN[C@@H](C)C(=O)N[C@H](C(=O)N[C@@H](CCCN)C(=O)N[C@@H]1CCCc2ccccc21)C(C)C [compound 13] | 90 nM | 70 | 3750 | 1470 | 
CC(C)[C@H](NC(=O)[C@H](C)N)C(=O)N[C@@H](CCCNC(=O)OCc1ccccc1)C(=O)Nc1cccc2ccccc12 [compound 21] | 850 nM | 990 | 4790 | 2770 | 
CN[C@@H](C)C(=O)N[C@@H](CC(=O)OC)C(=O)N1CCC[C@H]1C(=O)N[C@@H]1CCCc2ccccc21 [compound 6] | 80 nM | 190 | 6380 | 2160 | 
CN[C@@H](C)C(=O)N[C@H](C(=O)N[C@@H](CCCNC(=O)OCc1ccccc1)C(=O)N[C@@H]1CCCc2ccccc21)C(C)C [compound 10] | 280 nM | 220 | 2070 | 1410 | 
CN[C@@H](C)C(=O)N[C@H](C(=O)N[C@@H](CCCN)C(=O)NNc1ccccc1)C(C)C [compound 32] | 4010 nM | 2170 | 10900 | 3820 | 
CC[C@H](NC(=O)[C@H](C)NC)C(=O)N1CCC[C@H]1C(=O)N[C@@H]1CCCc2ccccc21 [compound 3] | 60 nM | 60 | 5270 | 2340 | binding affinity for cIAP1 and cIAP2 compared with XIAP (cIAP1-BIR3): higher affinity binding to cIAP1 and cIAP2 than XIAP
CN[C@@H](C)C(=O)N[C@H](C(=O)N1CCC[C@H]1C(=O)NNc1ccccc1)C(C)C [compound 22] | 260 nM | 560 | 5430 | 3620 | 
CN[C@@H](C)C(=O)N[C@H](C(=O)N[C@@H](CCCCNC(=O)OCc1ccccc1)C(=O)N[C@@H]1CCCc2ccccc21)C(C)C [compound 12] | 200 nM | 500 | 5460 | 3310 | 
CN[C@@H](C)C(=O)N[C@H](C(=O)N[C@@H](CCCN=C(N)N)C(=O)NNc1ccccc1)C(C)C [compound 28] | 1970 nM | 1420 | 15400 | 4390 | 
CC(C)[C@H](NC(=O)[C@@H](N)CO)C(=O)N[C@@H](C)C(=O)Nc1cccc2ccccc12 [compound 19] | 4370 nM | 17200 | 22400 | 8330 | 
CC(C)[C@H](NC(=O)[C@H](C)N)C(=O)N1CCC[C@H]1C(=O)NNc1ccccc1 [compound 36] | 340 nM | 570 | 12900 | 6110 | 
CN[C@@H](C)C(=O)N[C@H](C(=O)N1CCC[C@H]1C(=O)Nc1ccc2ccccc2n1)C(C)C [compound 39] | 80 nM |  |  |  | EC50 ([1]; PC-3 cells, ~90 pM LT-α, 24 h, cell viability, read-out: LT-α EC50): 30 nM; EC50 ([2]; PC-3 cells, 10 nM TNF, 24 h, cell viability, read-out: TNF EC50): 70 nM
CN[C@@H](C)C(=O)N[C@H](C(=O)N[C@@H](CCCNC(=O)OCc1ccccc1)C(=O)NNc1ccccc1)C(C)C [compound 31] |  | 1290 | 2930 |  | 
CN[C@@H](C)C(=O)N[C@H](C(=O)N[C@@H](CCC(N)=O)C(=O)N[C@@H]1CCCc2ccccc21)C(C)C [compound 11] | 720 nM | 550 | 5500 | 3250 | 
CC[C@H](C)[C@H](NC(=O)[C@H](C)NC)C(=O)N1CCC[C@H]1C(=O)N[C@@H]1CCCc2ccccc21 [compound 2] | 40 nM | 90 | 2080 | 1110 | binding affinity for cIAP1 and cIAP2 compared with XIAP (cIAP1-BIR3): higher affinity binding to cIAP1 and cIAP2 than XIAP
CN[C@@H](C)C(=O)N[C@@H](CC(=O)O)C(=O)N1CCC[C@H]1C(=O)N[C@@H]1CCCc2ccccc21 [compound 7] | 9400 nM | 12600 | > 56700 | > 57200 | 
CN[C@@H](C)C(=O)N[C@H](C(=O)N[C@@H](C)C(=O)Nc1cccc2ccccc12)C(C)C [compound 15] | 3230 nM and 3200 nM | 5100 | 17500 | 8960 | EC50 ([2]; representative curves, 10 nM TNF, 24 h, CellTiter-Glo, read-out: EC50, sensitization of PC-3 tumor cells to TNF (Fig 5a)): 5300 nM
CN[C@@H](C)C(=O)N[C@@H](CCC(N)=O)C(=O)N1CCC[C@H]1C(=O)N[C@@H]1CCCc2ccccc21 [compound 8] | 80 nM | 150 | 4070 | 1260 | 
CN[C@@H](C)C(=O)N[C@@H](CC(C)C)C(=O)N1CCC[C@H]1C(=O)N[C@@H]1CCCc2ccccc21 [compound 5] | 60 nM | 120 | 4350 | 1330 | 
CC(C)[C@H](NC(=O)[C@H](C)N)C(=O)N[C@@H](C)C(=O)Nc1cccc2ccccc12 [compound 17] | 1230 nM | 980 | 5980 | 3770 | 
CN[C@@H](C)C(=O)N[C@H](C(=O)N1CCC[C@H]1C(=O)N[C@@H]1CCCc2ccccc21)C(C)C [compound 1] | 20 nM | 40 ± 10 | 2340 | 840 | EC50 ([1]; Homo sapiens, representative curves, 90 pM LT-α, 24 h, CellTiter-Glo, read-out: EC50, sensitization of PC-3 tumor cells to LT-α (Fig 5b)): 19 nM; Ki (cIAP1-BIR3; Ki against cIAP1-BIR3, FP assay): 24 ± 1 nM; binding affinity for cIAP1 and cIAP2 compared with XIAP (cIAP1-BIR3): higher affinity binding to cIAP1 and cIAP2 than XIAP
CN[C@@H](C)C(=O)N[C@H](C(=O)N[C@@H](CCCCN)C(=O)NNc1ccccc1)C(C)C [compound 35] | 2830 nM | 1350 | 5090 | 2180 | 
CC[C@H](N)C(=O)N[C@H](C(=O)N[C@@H](C)C(=O)Nc1cccc2ccccc12)C(C)C [compound 20] | 4770 nM | 5290 | 43800 | 24900 | 
CN[C@@H](C)C(=O)N[C@H](C(=O)N[C@@H](CCCNC(N)=N[N+](=O)[O-])C(=O)N[C@@H]1CCCc2ccccc21)C(C)C [compound 9] | 50 nM | 70 | 2620 | 810 | 
CN[C@@H](C)C(=O)N[C@H](C(=O)N[C@@H](CO)C(=O)N[C@@H]1CCCc2ccccc21)C(C)C [compound 14] | 230 nM | 300 | 6810 | 3090 | 
CN[C@@H](C)C(=O)N[C@H](C(=O)N1CCC[C@@H]1C(=O)Nc1cccc2ccccc12)C(C)C [compound 16] | 180 nM and 200 nM | 200 | 3350 | 1730 | 
CN[C@@H](C)C(=O)N[C@H](C(=O)N[C@@H](C)C(=O)NNc1ccccc1)C(C)C [compound 23] | 6130 nM and 6100 nM | 8290 | 13600 | 7390 | LT-α EC50 ([1]; PC-3 cells, ~90 pM LT-α, 24 h, cell viability): IN^b; cytotoxicity against PC-3 cells with LT-α ([1]; in words): essentially no cytotoxicity; TNF EC50 ([2]; PC-3 cells, 10 nM TNF, 24 h, cell viability): IN^b; cytotoxicity against PC-3 cells with TNF ([2]; in words): essentially no cytotoxicity
AVPIAQK-NH2 [SMAC-7-mer, AVPIAQK, reference compound] | 450 nM | 420 | 26400 | 15400 | 
CN[C@@H](C)C(=O)N[C@@H](CCC(=O)O)C(=O)N[C@@H](C)C(=O)NNc1ccccc1 [compound 29] | 10900 nM | 23000 | 25100 | 7670 | 
